Assay results taken from patent US20240245680A1, “Methods of Treating Retinal Vasculopathies” (Unity Biotechnology, Inc., priority 2021, published 2024).

Tests used:
[1] = system: ATF4 protein expression in retina; assay: Retinal ATF4 protein immunoblot after IP dosing, adult retinas; type: in vivo, mouse; details: IP 30 and 60 mpk, adult retinas 4 hours post administration, immunoblot vs Actinin (FIG. 11C)
Experimental: Intraperitoneally administered Compound 39 activated ATF4 protein expression at 30 and 60 mpk. Adult eye retinas were dissected 4 hours post Compound 39 administration and the harvested samples were kept on ice and homogenized using Precellys™ (500 μL tubes) tissue homogenizer in 300 μL MSD Tris Lysis buffer containing Pierce Protease Inhibitor Complete Mini tablet (ThermoScientific™ A32963). Homogenized samples were then centrifuged to separate supernatant from debris. Lysates were separated by SDS-PAGE and immunoblotted for ATF4 (D4B8) and control protein Actinin (Cell Signaling, cat. 3134S).

DDIT3 expression = assay: DDIT3 gene expression (qPCR) in HRMEC; type: cell-based, human; details: five hours, quarter-log dilutions from 10 μM, qPCR (FIG. 10C)
Experimental: Primary Human Retinal Microvascular Endothelial Cells (HRMEC—Cell Systems™ Corp., ACBRI 181; Lot #181.04.02.02.02) were cultured in Vascular Cell Basal Medium (ATCC® Lot 90909277) with Endothelial Cell Growth Kit-VEGF (ATCC Lot 80720201) with additional FBS added to a final concentration of 5% FBS. Cells were seeded in a 96-well plate at near confluency and treated the next day with Compound 39 for five hours. A dose response was generated using quarter-log dilutions using 10 μM as the starting concentration. Following treatment, RNA was extracted using the RNeasy® 96-Kit (Qiagen®), and cDNA was next generated using Superscript™ IV VILO™ Master Mix (Thermofisher®). qPCR was performed using standard TaqMan® reagents and conditions. DDTI3 gene expression was detected using primer Hs00358796_g1 and Tbp was used as a control gene using primer (Hs99999910_m1). Peak activation of DDIT3 expression was detected at ˜250 nM Compound 39.

[2] = system: p-eIF2a, ATF4, DDIT3 (CHOP); assay: Immunoblot of p-eIF2a, ATF4 and DDIT3 in mouse embryonic fibroblasts; type: cell-based; details: MEF cells, 250 nM, five hours, immunoblot (FIG. 10B)
Experimental: Next, mouse embryonic fibroblasts (MEF) cells were cultured to near confluency and treated for five hours with a fixed concentration (250 nM) of Compound 39. Cells were harvested in LSD lysis buffer and homogenates were separated by SDS-PAGE. Immunoblotting was performed overnight using antibodies targeting p-eIF2a (Clone D9G8), ATF4 (Clone D4B8), and DNA damage inducible transcript 3 (DDIT3) (Clone 9C8). Compound 39 treatment increases the levels of phospho-eIF2a (p-eIF2a) as well as ATF4 and DDIT3 (CHOP).

cellular ATF4 protein = assay: ATF4-HiBiT reporter assay in H2122 cells (GCN2 pathway activation); type: cell-based; details: five hours, quarter-log dilutions from 10 μM (FIG. 10A)
Experimental: Without any limitations, such assays may be used to test other compounds for GCN2 pathway activation. Activating transcription factor 4 (ATF4) was C-terminally tagged in H2122 cells (CRL-5985™) with a high affinity luciferase complementation fragment (HiBiT) through a knock-in approach using CRISPR-Cas12a technology and a single-stranded oligo DNA nucleotides (ssODNs) template carrying the HiBiT tag. Following reporter cell-line generation (H2122 ATF4-HiBIT) cells were seeded in a 96-well plate at near confluency and treated the next day with Compound 39 for five hours. A dose response was generated using quarter-log dilutions using 10 μM as the starting concentration. The Nano-Glo® HiBiT Lytic Detection (Promega®) reagent was added after five hours and allowed for plate-based bioluminescent quantification of cellular ATF4 protein using an add-mix-read assay format. Peak activation of ATF4 expression was detected at ˜250 nM of Compound 39.

[3] = system: ATF4 and DDIT3 gene expression in retina; assay: Retinal Atf4 and Ddit3 gene expression after IP dosing, normoxic and OIR neonatal mice; type: in vivo, mouse; details: IP 10, 30 or 90 mpk at P12, 4 or 24 hours
Experimental: (§1) Compound 39 was tested in an animal model that shares many hallmarks with human ischemic retinopathies, the oxygen-induced retinopathy (OIR) neonatal mouse. To investigate the pharmacodynamic effect of Compound 39, it was intraperitoneally (IP) administered at either 10, 30, or 90 mpk. The dosing formulation was based on a vehicle comprising 1% Pluronic F-68/1% HPMC, 15% captisol. Both normoxic and OIR neonates were treated at P12 (the end of hyperoxia) and taken down after 4 hours, or 24 hours later at P13. Retinas were dissected, and RNA was extracted using a fully automated, spin-column-based nucleic acid extraction instrument (Qiacube Connect™). qPCR was performed using standard TaqMan® reagents and conditions. Atf4, Ddit3, and Tbp (control) gene expression was determined using primers: Mm00515324_m1, Mm00492097_m1, and Mm01277042_m1, respectively.

[4] = system: ATF4, p-eIF2a, HIF1α protein in retina; assay: Retinal immunoblot of ATF4, p-eIF2a and HIF1α after IP dosing, normoxic and OIR retinas; type: in vivo, mouse; details: IP 30 mpk, 4 hours after administration, OIR neonates, immunoblot (FIG. 13)
Experimental: Normoxic and OIR eye retinas were dissected 4 hours after Compound 39 administration and the harvested samples were kept on ice and homogenized using Precellys (500 μL tubes) tissue homogenizer in 300 μL LSD Sample/Lysis buffer. Homogenized samples were then centrifuged to separate supernatant from debris. Lysates were separated by SDS-PAGE and immunoblotted for ATF4 (D4B8), p-eIF2a (D9G8), and HIF1α (Novus™, cat. NB100-449) and control protein Actinin (Cell Signaling™, cat. 3134S).

[5] = system: Slc7a11 and Serpinf1 gene expression in retina; assay: Retinal Slc7a11 and Serpinf1 gene expression after IP dosing, normoxic and OIR neonatal mice; type: in vivo, mouse; details: IP 10, 30 or 90 mpk at P12, 4 or 24 hours
Experimental: as §1, with “To” for “Compound 39 was tested in an animal model that shares many hallmarks with human ischemic retinopathies, the oxygen-induced retinopathy (OIR) neonatal mouse. To”, “administrated” for “(IP) administered”, “mpk in both normoxic and OIR neonatal mice.” for “mpk.”, “TaqMan” for “TaqMan®”, “Slc7a11, Serpinf1,” for “Atf4, Ddit3,”, “primers Mm00442530_m1, Mm00441270_m1,” for “primers: Mm00515324_m1, Mm00492097_m1,”

**Q.** Which results are given for `CNc1nc2ccc(-c3c(C)ccc(C(=O)c4c(-c5ccccc5)n(C)n(-c5ccccc5)c4=O)c3N)cc2s1` [Compound 39, 4-(2-Amino-4-methyl-3-(2-(methylamino)benzo[d]thiazol-6-yl)benzoyl)-1-methyl-2,5-diphenyl-1H-pyrazol-3(2H)-one]?
**A.** levels of ATF4 protein in retina [1]: increased; concentration of peak activation of DDIT3 expression (DDIT3 expression): ~250 nM; levels of ATF4 [2]: increases; levels of DDIT3 (CHOP) [2]: increases; levels of phospho-eIF2a (p-eIF2a) [2]: increases; concentration of peak activation of ATF4 expression (cellular ATF4 protein): ~250 nM; induction of ATF4 gene expression in retina ([3]; normoxic and OIR neonates (FIG. 11A)): dose-dependent induction; induction of DDIT3 gene expression in retina ([3]; normoxic and OIR neonates (FIG. 11B)): dose-dependent induction; HIF1α protein levels in retina [4]: downregulated; levels of ATF4 protein in retina [4]: increased; phospho-eIF2α levels in retina [4]: increased; induction of retinal Slc7a11 gene expression ([5]; normoxic and OIR neonatal mice (FIG. 12A)): dose-dependent induction; induction of retinal Serpinf1 gene expression ([5]; normoxic and OIR neonatal mice (FIG. 12B)): dose-dependent induction
